System: CRAC current (ICRAC)
Assay: Whole cell patch-clamp recordings of CRAC current in differentiated CD4+ T cells
Format: cell-based, mouse
Settings: for increase in current amplitude following 2-APB application: thapsigargin-pretreated, 2-APB 40 μM, step to −100 mV
Experimental: CD4^+ T cells were cultured in non-polarizing conditions and harvested at day 5. Patch-clamp recordings were performed using an Axopatch 200 amplifier (Axon Instruments) interfaced to an ITC-18 input/output board (Instrutech) and an iMac G5 computer. Currents were filtered at 1 kHz with a 4-pole Bessel filter and sampled at 5 kHz. Recording electrodes were pulled from 100-μl pipettes, coated with Sylgard, and fire-polished to a final resistance of 2-5 MΩ. Stimulation and data acquisition and analysis were performed using in-house routines developed on the Igor Pro platform (Wavemetrics). All data were corrected for the liquid junction potential of the pipette solution relative to Ringer's in the bath (10 mV) and for leak currents collected in 20 mM [Ca^2+]o+25 μM La^3+. The standard extracellular Ringer solution contained (in mM): 130 NaCl, 4.5 KCl, 20 CaCl2, 1 MgCl2, 10 D-glucose, and 5 Na-Hepes (pH 7.4). In some experiments, 2 mM CaCl2 was used in the standard extracellular solution and the NaCl concentration was raised to 150 mM. The standard divalent-free (DVF) Ringer solutions contained (in mM) 150 NaCl, 10 mM tetraacetic acid, 1 mM EDTA and 10 mM Hepes (pH 7.4). 25 nM charybdotoxin (Sigma) was added to all extracellular solutions to eliminate contamination from Kv1.3 channels. […] Averaged results are presented as the mean value±s.e.m. Curve fitting was done by least-squares methods using built-in functions in Igor Pro 5.0. The permeability of Cs^+ relative to that of Na^+ was calculated from the bionic reversal potential using the relation:

Compound	increase in current amplitude following 2-APB application (STIM2-deficient T cells, n=5) [%]	increase in current amplitude following 2-APB application (control T cells, n=4) [%]	block of Na+ CRAC currents (wild-type mouse T cells, 20 μM Ca2+) [%]
NCCOB(c1ccccc1)c1ccccc1 [2-APB, 2-Aminoethoxydiphenyl borate]	30±7	26±6	
[Ca+2] [Ca^2+]			~50

Reference: US20120272343A1, “STROMAL INTERACTING MOLECULE KNOCKOUT MOUSE AND USES THEREOF” (IMMUNE DISEASE INSTITUTE, INC., priority 2007, published 2012)
